Patent US20200239530A1, “COMPOUNDS AND METHODS OF MODULATING PROTEIN DEGRADATION” (Vividion Therapeutics, Inc., priority 2017, published 2020)

Molecular target: T1, UBE2O (E3-independent) E2 ubiquitin-conjugating enzyme (Homo sapiens, UniProt Q9C0C9)
T1 construct: Cells were resuspended in cold PBS on ice and sonicated with a probe sonicator to achieve lysis; endogenous in cells
T1 sequence (Q9C0C9 1-1292): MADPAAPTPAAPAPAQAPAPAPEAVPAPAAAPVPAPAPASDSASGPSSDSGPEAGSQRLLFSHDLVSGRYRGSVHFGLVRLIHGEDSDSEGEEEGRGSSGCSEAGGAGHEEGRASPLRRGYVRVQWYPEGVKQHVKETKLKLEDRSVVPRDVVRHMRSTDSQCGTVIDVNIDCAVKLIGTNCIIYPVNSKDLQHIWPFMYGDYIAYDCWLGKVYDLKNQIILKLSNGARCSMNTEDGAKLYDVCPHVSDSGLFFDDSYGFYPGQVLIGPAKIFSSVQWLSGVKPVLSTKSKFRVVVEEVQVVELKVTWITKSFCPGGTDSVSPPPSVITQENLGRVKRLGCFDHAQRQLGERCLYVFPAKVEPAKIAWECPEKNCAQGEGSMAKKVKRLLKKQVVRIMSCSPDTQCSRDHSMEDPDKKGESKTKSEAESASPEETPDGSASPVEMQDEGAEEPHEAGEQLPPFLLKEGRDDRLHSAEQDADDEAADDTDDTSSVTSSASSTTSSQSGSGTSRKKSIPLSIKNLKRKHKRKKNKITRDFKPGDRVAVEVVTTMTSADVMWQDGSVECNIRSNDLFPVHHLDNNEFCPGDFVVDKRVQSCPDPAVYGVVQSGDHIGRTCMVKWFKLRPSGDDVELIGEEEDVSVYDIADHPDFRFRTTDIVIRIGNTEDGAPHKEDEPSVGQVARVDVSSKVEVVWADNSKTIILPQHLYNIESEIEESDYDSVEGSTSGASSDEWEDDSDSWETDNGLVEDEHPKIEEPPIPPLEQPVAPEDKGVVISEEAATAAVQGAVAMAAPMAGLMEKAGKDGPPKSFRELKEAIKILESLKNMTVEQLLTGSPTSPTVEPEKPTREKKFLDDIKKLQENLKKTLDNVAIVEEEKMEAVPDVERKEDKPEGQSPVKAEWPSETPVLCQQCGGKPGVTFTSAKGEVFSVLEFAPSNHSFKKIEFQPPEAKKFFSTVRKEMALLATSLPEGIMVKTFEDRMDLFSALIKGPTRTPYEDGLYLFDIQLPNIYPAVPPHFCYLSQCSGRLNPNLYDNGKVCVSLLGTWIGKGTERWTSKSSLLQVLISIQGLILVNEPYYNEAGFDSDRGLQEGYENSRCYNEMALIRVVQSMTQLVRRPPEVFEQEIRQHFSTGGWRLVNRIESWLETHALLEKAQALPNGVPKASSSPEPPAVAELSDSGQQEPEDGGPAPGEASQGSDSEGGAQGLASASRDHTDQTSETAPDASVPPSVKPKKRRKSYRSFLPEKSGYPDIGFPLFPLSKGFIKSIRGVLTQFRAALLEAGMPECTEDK
Test: Cysteine liganding, probe competition
Assay type: binding
Outline: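 Lysates from probe-sonicated cells in PBS (5 mg/ml proteome) were exposed to compound for 1 hr at 25° C, then labelled with desthiobiotin iodoacetamide probe (10 mM stock) for 1 hr at 25° C. Probe-tagged peptides were streptavidin-enriched after trypsin digestion.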

SMILES	Liganded (UBE2O Res# 370, uniprot Q9C0C9)	Liganded (UBE2O Res# 400, uniprot Q9C0C9)	Liganded (UBE2O Res# 910, uniprot Q9C0C9)	Liganded (UBE2O Res# 913, uniprot Q9C0C9)
COc1ccc2c(c1)CCCN2C(=O)CCl [KB02]	YES	YES	YES	YES
O=C(CCl)Nc1cc(C(F)(F)F)cc(C(F)(F)F)c1 [KBO3]	YES			
